Reference: patent US20240090547A1, “SWEETENER COMPOSITIONS COMPRISING MOGROSIDES AND USES THEREOF” (Firmenich Incorporated, priority 2021, published 2024)

Legend:
Assay type in all cases: in vivo, human
[1] = system: expert panelists; assay: Expert panelists' comparison of mogrosides with stevia; conditions: 'Examples 4 and 5', in words
[2] = system: panel of volunteers; assay: Sensory testing for sparkling orange beverage
Method: (§1) A panel of volunteers evaluated siamenoside I for in-mouth attributes (sweetness, delayed sweetness, sourness, bitterness, global flavor intensity, thickness/body, and astringence) and aftertaste (AT) attribtues (lingering sweetness, overall off-taste intensity, licorice off-tast, bitterness off-taste, and mouth coating) on a 10-point scale. Two replicate sessions were conducted, with a 20 minute break between sessions. There was a 90 second delay between samples within a session. Panelists evaluated all samples in a first session and evaluated the samples again a second time in a second session. Control samples of Rebaudioside M (Reb M) were evaluated during all sessions as a control. Mogroside V was also evaluated and sensory data for mogroside V is provided.
(§2) Data analysis was performed using 2-way analysis of variance (ANOVA) with interaction using Tukey's HSD test. The data was normalized for each attribute according to average scores for Reb M.
A panel of volunteers evaluated a sparkling orange beverage containing siamenodie I for in-mouth attributes and aftertaste attributes according to the methods described in Example 1 above.
The average normalized in-mouth attributes for a sample of sparkling orange beverage containing siamenoside I was evaluated and the results are provided below.
The average normalized aftertaste attributes for a sample of sparkling orange beverage containing siamenoside I was evaluated and the results are provided below.

[3] = system: panel of volunteers; assay: Sensory testing for apple drink (panel, in-mouth and aftertaste attributes); set-up: key to Sweetness / Delayed Sweetness / Bitterness / Lingering Sweetness / Overall Off-Taste / Licorice Aftertaste / Bitterness Aftertaste / Mouth Coating: 10-point scale; normalized per attribute to average Reb M scores; conditions: for Bitterness / Delayed Sweetness / Global Flavor Intensity / Sweetness / Thickness/Body: in-mouth, average normalized score
Method: as §1, §2
The average normalized in-mouth attributes for each sample of apple drink containing siamenoside I was evaluated below.
The average sweetness for each sample of apple drink containing siamenoside I was evaluated below.

[4] = system: panel of flavorists; assay: Additional sensory testing for lemon-flavored (lemon-lime) beverage, flavorist panel; conditions: 600 ppm mogrosides, 0 to 10 scale, letter in parentheses = Duncan's test group; for Sweet Linger: aftertaste, after expectoration; for Bitterness / Mouthfeel/Thickness / Peak Sweetness / Upfront Sweetness: in-mouth
Method: (§3) A panel of flavorists at three locations evaluated lemon-lime beverage various mogrosides at a concentration of 600 ppm mogrosides for in-mouth attributes (peak sweetness, upfront sweetness, bitterness, and mouthfeel/thickness) and aftertaste attributes (sweet taste linger), on a 0 to 10 scale. The in-mouth attributes were evaluated while holding the sample in the mouth, while the aftertaste attributes were evaluated after expectoration.

[5] = system: panel of volunteers; assay: Sensory testing for vanilla milk; conditions: for Licorice Aftertaste / Lingering Sweetness / Mouth Coating / Overall Off-Taste: aftertaste
Method: as §1, §2
A panel of volunteers evaluated vanilla milk for in-mouth attributes and aftertaste attributes according to the methods described in Example 1 above.
The average normalized in-mouth attributes for each sample of vanilla milk was evaluated and the results are provided below.
The average normalized aftertaste attributes for each sample of vanilla milk containing siamenoside I was evaluated and the results are provided below.

[6] = system: panel of volunteers; assay: Sensory testing for lemon-lime carbonated soft drink; set-up: key to Sweetness / Delayed Sweetness / Bitterness / Lingering Sweetness / Overall Off-Taste / Licorice Aftertaste / Bitterness Aftertaste: 10-point scale; scores normalized to average Reb M scores
Method: as §1, §2
A panel of volunteers evaluated the siamenoside I-containing lemon-lime carbonated soft drink for in-mouth attributes and aftertaste attributes according to the methods described in Example 1 above.
The average normalized in-mouth attributes for a sample of lemon-lime carbonated soft drink having […] was evaluated below.
The average normalized aftertaste attributes for a sample of lemon-lime carbonated soft drink having siamenoside I was evaluated below.

[7] = system: panel of flavorists; assay: Additional sensory testing for vanilla milk, flavorist panel; conditions: 400 ppm mogrosides, 0 to 10 scale, letter in parentheses = Duncan's test group; for Sweet Linger: aftertaste, after expectoration; for Bitterness / Mouthfeel/Thickness / Peak Sweetness / Upfront Sweetness: in-mouth
Method: as §3, with “vanilla milk containing” for “lemon-lime beverage”, “400” for “600”, “expectoration. The data was analyzed using Duncan's new multiple range test and the scores are provided in the data below in parentheses.” for “expectoration.”

[8] = orange sparkling beverage, in words
[9] = sparkling orange beverage, 250 ppm (mogroside V 250 mg [sic]), aftertaste, average normalized score, 10-point scale
[10] = sparkling orange beverage, 250 ppm (mogroside V 250 mg [sic]), in-mouth, average normalized score, 10-point scale
[11] = 250 ppm (mogroside V 250 mg [sic]), aftertaste, 10-point scale
[12] = 250 ppm (mogroside V 250 mg [sic]), 10-point scale
[13] = 500 ppm (mogroside V 500 mg [sic]), aftertaste, 10-point scale
[14] = 500 ppm (mogroside V 500 mg [sic]), 10-point scale
[15] = 200 ppm (mogroside V 200 mg [sic]), average normalized score, 10-point scale
[16] = 200 ppm (mogroside V 200 mg [sic]), in-mouth, average normalized score, 10-point scale
[17] = 400 ppm (mogroside V 400 mg [sic]), average normalized score, 10-point scale
[18] = 400 ppm (mogroside V 400 mg [sic]), in-mouth, average normalized score, 10-point scale
[19] = at both 200 ppm and 400 ppm, in words
[20] = 600 ppm (mogroside V 600 mg [sic]), aftertaste, average normalized score, 10-point scale
[21] = 600 ppm (mogroside V 600 mg [sic]), in-mouth, average normalized score, 10-point scale

C[C@H](CC[C@@H](O[C@@H]1O[C@H](CO[C@@H]2O[C@H](CO)[C@@H](O)[C@H](O)[C@H]2O)[C@@H](O)[C@H](O)[C@H]1O[C@@H]1O[C@H](CO)[C@@H](O)[C@H](O)[C@H]1O)C(C)(C)O)[C@H]1CC[C@@]2(C)[C@@H]3CC=C4[C@@H](CC[C@H](O[C@@H]5O[C@H](CO)[C@@H](O)[C@H](O)[C@H]5O)C4(C)C)[C@]3(C)[C@H](O)C[C@]12C [siamenoside I]
bitter aftertaste compared with stevia [1]: lower bitter aftertaste
licorice aftertaste compared with stevia [1]: lower licorice aftertaste
mouthfeel compared with stevia [1]: better mouthfeel
delayed sweetness compared with Reb M [2, 8]: slightly higher
in mouth and aftertaste profile compared with Reb M [2, 8]: comparable to that of Reb M
sweetness compared with Reb M [2, 8]: slightly higher
sweetness compared with mogroside V [2, 8]: higher sweetness
Licorice Aftertaste [2, 9]: 2.8
Lingering Sweetness [2, 9]: 4.4
Mouth Coating [2, 9]: 2.9
Overall Off-Taste [2, 9]: 3.6
Delayed Sweetness [2, 10]: 3.7
Sweetness [2, 10]: 5.9
Bitterness Aftertaste [3, 11]: 1.3
Licorice Aftertaste [3, 11]: 2.2
Lingering Sweetness [3, 11]: 3.2
Overall Off-Taste [3, 11]: 2.5
Bitterness [3, 12]: 1.5
Delayed Sweetness [3, 12]: 2.3
Global Flavor Intensity [3, 12]: 3.5
Sweetness [3, 12]: 4.0
Thickness/Body [3, 12]: 1.2
Licorice Aftertaste [3, 13]: 2.7
Lingering Sweetness [3, 13]: 4.7
Mouth Coating [3, 13]: 2.4
Overall Off-Taste [3, 13]: 3.4
Bitterness [3, 14]: 1.7
Delayed Sweetness [3, 14]: 3.2
Global Flavor Intensity [3, 14]: 4.4
Sweetness [3, 14]: 5.3
Thickness/Body [3, 14]: 1.6
global flavor intensity compared with mogroside V ([3]; in words): higher global flavor intensity
in-mouth and aftertaste profile compared with Reb M ([3]; in words): comparable to that of Reb M
overall off-taste compared with mogroside V ([3]; in words): lower overall off-taste
sweetness compared with mogroside V ([3]; in words): sweeter
Sweet Linger [4]: 4.429 (bc)
Bitterness [4]: 2.571 (a)
Mouthfeel/Thickness [4]: 3.429 (ab)
Peak Sweetness [4]: 6.571 (b)—
Upfront Sweetness [4]: 4.286 (b)
Licorice Aftertaste [5, 15]: 1.2
Lingering Sweetness [5, 15]: 3.3
Mouth Coating [5, 15]: 3.3
Overall Off-Taste [5, 15]: 1.8
Astringence [5, 16]: 0.7
Delayed Sweetness [5, 16]: 2.2
Fattiness [5, 16]: 3.5
Sourness [5, 16]: 1.1
Sweetness [5, 16]: 5.6
Licorice Aftertaste [5, 17]: 1.7
Lingering Sweetness [5, 17]: 4.8
Mouth Coating [5, 17]: 0.5
Overall Off-Taste [5, 17]: 2.4
Astringence [5, 18]: 0.8
Bitterness [5, 18]: 0.8
Delayed Sweetness [5, 18]: 2.6
Fattiness [5, 18]: 4.3
Global Flavor Intensity [5, 18]: 4.6
Sourness [5, 18]: 0.7
Sweetness [5, 18]: 7.7
lingering sweetness compared with Reb M [5, 19]: increased
sweetness compared with Reb M [5, 19]: increased
bitterness compared with mogroside V ([5]; in words): lower bitterness
delayed sweetness compared with mogroside V ([5]; in words): higher
global flavor intensity compared with mogroside V ([5]; in words): higher global flavor intensity
sweetness compared with mogroside V ([5]; in words): higher
Bitterness Aftertaste [6, 20]: 1.3
Licorice Aftertaste [6, 20]: 3.0
Lingering Sweetness [6, 20]: 4.4
Overall Off-Taste [6, 20]: 4.1
Bitterness [6, 21]: 1.6
Delayed Sweetness [6, 21]: 4.1
Global Flavor Intensity [6, 21]: 4.7
Sweetness [6, 21]: 6.0
bitterness compared with Reb M ([6]; 600 ppm, in words): overall lower bitterness
global flavor intensity compared with Reb M ([6]; 600 ppm, in words): same
sweetness compared with Reb M ([6]; 600 ppm, in words): same
bitterness aftertaste compared with mogroside V ([6]; in words): lower bitterness aftertaste
bitterness compared with mogroside V ([6]; in words): lower bitterness
global flavor intensity compared with mogroside V ([6]; in words): higher global flavor intensity
in mouth and aftertaste profile compared with Reb M ([6]; in words): comparable to that of Reb M
sweetness compared with mogroside V ([6]; in words): higher sweetness
Sweet Linger [7]: 5.875 (a)
Bitterness [7]: 1.688 (a)
Mouthfeel/Thickness [7]: 5.000 (ab)
Peak Sweetness [7]: 7.375 (a)—
Upfront Sweetness [7]: 5.938 (ab)

Isomogroside IVE
bitter aftertaste compared with stevia [1]: lower bitter aftertaste
licorice aftertaste compared with stevia [1]: lower licorice aftertaste
mouthfeel compared with stevia [1]: better mouthfeel
Sweet Linger [4]: 3.429 (c)
Bitterness [4]: 1.857 (a)
Mouthfeel/Thickness [4]: 2.714 (b)
Peak Sweetness [4]: 4.857 (c)
Upfront Sweetness [4]: 3.571 (b)
Sweet Linger [7]: 4.563 (b)
Bitterness [7]: 1.313 (ab)
Mouthfeel/Thickness [7]: 4.125 (b)
Peak Sweetness [7]: 5.938 (c)
Upfront Sweetness [7]: 5.125 (b)
